Laboratory results: PMC9827845, “Active Pharmaceutical Ingredient Uptake by Zebrafish (Danio rerio) Oct2 (slc22a2) Transporter Expressed in Xenopus laevis Oocytes” (Environmental Toxicology and Chemistry, 2022)

Experiments:
Oct2 (slc22a2) [1] = target: T1, Oct2 (slc22a2) (Danio rerio, UniProt Q7T2C0); assay: inhibition of […] TEA uptake at […] in Xenopus oocytes expressing zebrafish oct2; assay type: cell-based
T1 construct: complete Danio rerio slc22a2 cDNA clone (zgc:64076; IRBOp991A024D; oct2)
T1 sequence (Q7T2C0 1-562): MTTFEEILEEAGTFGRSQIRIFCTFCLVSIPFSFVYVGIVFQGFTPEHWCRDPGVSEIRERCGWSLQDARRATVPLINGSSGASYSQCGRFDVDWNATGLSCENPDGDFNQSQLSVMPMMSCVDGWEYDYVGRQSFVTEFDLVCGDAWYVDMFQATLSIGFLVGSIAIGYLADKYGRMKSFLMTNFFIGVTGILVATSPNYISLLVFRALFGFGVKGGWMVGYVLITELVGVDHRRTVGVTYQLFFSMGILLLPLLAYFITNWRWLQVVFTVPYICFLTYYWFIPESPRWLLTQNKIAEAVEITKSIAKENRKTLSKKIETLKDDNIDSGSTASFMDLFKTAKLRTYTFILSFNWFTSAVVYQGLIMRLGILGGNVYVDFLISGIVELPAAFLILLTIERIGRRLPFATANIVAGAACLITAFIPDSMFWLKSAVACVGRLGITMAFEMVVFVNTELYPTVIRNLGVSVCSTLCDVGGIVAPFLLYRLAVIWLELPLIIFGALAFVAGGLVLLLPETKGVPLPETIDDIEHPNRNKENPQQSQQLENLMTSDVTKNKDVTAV

Oct2 (slc22a2) [2] = target: T1, Oct2 (slc22a2); assay: radiolabelled uptake in Xenopus oocytes expressing zebrafish oct2 versus sham; assay type: cell-based
[3] = substrate: CC(C)NCC(O)COc1cccc2ccccc12; assay: cells, lysate or membranes
[4] = substrate: CNC(=C[N+](=O)[O-])NCCSCc1ccc(CN(C)C)o1; assay: cells, lysate or membranes

NC12CC3CC(CC(C3)C1)C2 [amantadine]
inhibition of 200 μM TEA uptake at 2 mM in Xenopus oocytes expressing zebrafish (Oct2 (slc22a2) [1]): Uptake of tetraethylammonium (TEA) was inhibited by propranolol, amantadine, and cimetidine

CC[N+](CC)(CC)CC [TEA, tetraethylammonium]
radiolabelled uptake in Xenopus oocytes expressing zebrafish oct2 versus sham (Oct2 (slc22a2) [2]): zebrafish oct2 when expressed in Xenopus oocytes can facilitate the transport of ranitidine, propranolol, and TEA

B1: Oct2 (slc22a2) (Danio rerio) (protein)
chain: T1 sequence (Q7T2C0 1-562)
Km [3]: 408.9 µM
Km [4]: 246.1 µM
